For data set [1] the following is noted: literature / prior patents; cited from earlier work.
For data set [2], the system named is neuronal uptake of noradrenaline. The experiment in a line: Inhibition of uptake of 3H-NA in vitro in slices of mouse midbrain. In kind it is cell-based. The note with it: in words; in vitro or in vivo not stated. The procedure: (§1) It is not possible by experimental means to induce depressions in laboratory animals. In order to evaluate a possible anti-depressive effect of new substances biochemicalpharmacological test methods must be resorted to. One such method, which seems to give a good indication of the potential anti-depressive effects of the test substances, is described in Europ.
(§2) The test substances were administered intraperitoneally half an hour before the animals were killed. […] The incubation time was 5 minutes with 5 minutes of preincubation before the labelled amines were added. The slices were dissolved in Soluene® and the amounts of radio-active amines taken up were determined by liquid scintillation. […] Active uptake is defined as that part of the radioactive uptake which is inhibited by a high concentration of cocaine.
(§3) In the in vitro method, slices of mouse midbrain were preincubated for 5 minutes with a solution of the compound to be tested and then incubated as described above.

Data set [3] shares this test system. In words: Inhibition of uptake of 3H-NA in brain slices after in vivo (i.p.) administration. Also on record: species or system mouse. Here is the method: as §1, §2
For data set [4], the system named is neuronal uptake of 5-hydroxytryptamine. In words: Inhibition of uptake of 14C-5-HT in vitro in slices of mouse midbrain. The class given is cell-based. The procedure: as §1, §2, §3
Data set [5] has the same test system. In words: Inhibition of uptake of 14C-5-HT in brain slices after in vivo (i.p.) administration. Also on record: species or system mouse. The conditions noted are these: in words. Here is the method: as §1, §2
The conditions of data set [6]: cited from earlier work.

The structures appear in SMILES notation. Counter-ions that a name gives are not always drawn. Like-named read-outs stand apart in the source and are kept apart here.

As to `CN(C)CC=C(c1ccccc1)c1ccccc1`, the antidepressive effect entry in data set [1] is recorded as “have an antidepressive effect”.

For the molecule `CNC/C=C(\c1ccc(Br)cc1)c1cccnc1` [E-form of the compound of the invention, (E)-3-(4-bromophenyl)-3-(3-pyridyl)-N-methyl-allylamine], in data set [2], the “preferential inhibition of noradrenaline uptake” value is listed as “primarily inhibits the uptake of noradrenaline”.

In the case of `CNC/C=C(/c1ccc(Br)cc1)c1cccnc1` [H Z hydrochloride, (Z)-3-(4-bromophenyl)-3-(3-pyridyl)-N-methyl-allylamine], the inhibition at 101 µmol/kg in data set [3] (Mus musculus, ip, at the dose 101 μmole/kg i.p.) stood at 39%. Further, the “Uptake of 3H-NA in vivo ED50” value in data set [3] (i.p., half an hour before killing, mouse midbrain slices, dose for 50 percent decrease of active uptake, 30 min) was greater than 101 µmol/kg. In data set [3] (Mus musculus, ip, 0.5 h, i.p., half an hour before killing, mouse midbrain slices, dose for 50 percent decrease of active uptake), `CNC/C=C(/c1ccc(Br)cc1)c1cccnc1` [H Z oxalate, (Z)-3-(4-bromophenyl)-3-(3-pyridyl)-N-methyl-allylamine] displayed a 50% effective dose (ED50) of 102 µmol/kg. In turn, `CNCC=C(c1ccc(Br)cc1)c1cccnc1` [H mixture oxalate, N-methyl-3-(4-bromophenyl)-3-(3-pyridyl)allylamine oxalate] came in with an EC50 in data set [4] (Mus musculus, mouse midbrain slices, 5 min preincubation, 5 min incubation) of 500 nM.

`CNC/C=C(/c1ccc(Br)cc1)c1cccnc1` [Z-form of the compound of the invention, (Z)-3-(4-bromophenyl)-3-(3-pyridyl)-N-methyl-allylamine]: the “inhibition of the uptake of 5-HT in vitro, compared with prior art compounds” value in data set [4] (in words, tested as the hydrochloride) is given as “more potent inhibitor of the uptake of 5-HT in vitro than any of the prior art compounds”. In data set [5], the “inhibition of the uptake of 5-HT in vivo, compared with prior art compounds” value was “stronger inhibition of the uptake of 5-HT in vivo than do any of the prior art compounds tested”.

Consider `CN(C)CCC=C1c2ccccc2CCc2ccccc21` [amitriptyline], for which the side effects result in data set [6] (in vivo) was “orthostatism, anticholinergic effects and above all, an arrhythmogenic i.e. heart arrhythmia developing effect”. Moreover, the “start of the antidepressive effect” value in data set [6] (therapeutic use) is “does not start until some weeks after treatment”. In the case of `CNCCCN1c2ccccc2CCc2ccccc21` [desipramine], in data set [6] (in vivo), the side effects entry is “orthostatism, anticholinergic effects and above all, an arrhythmogenic i.e. heart arrhythmia developing effect”. Further, the “start of the antidepressive effect” value in data set [6] (therapeutic use) is listed as “does not start until some weeks after treatment”.

As for `CN(C)CCCN1c2ccccc2CCc2ccccc21` [imipramine], the side effects entry in data set [6] (in vivo) was “orthostatism, anticholinergic effects and above all, an arrhythmogenic i.e. heart arrhythmia developing effect”. Moreover, in data set [6] (therapeutic use), the “start of the antidepressive effect” value is listed as “does not start until some weeks after treatment”. With `CNCCC=C1c2ccccc2CCc2ccccc21` [nortriptyline], the side effects result in data set [6] (therapeutic use, arrhythmogenic in large doses to old patients) is “orthostatism, anticholinergic effects and above all, an arrhythmogenic i.e. heart arrhythmia developing effect”. Moreover, the “start of the antidepressive effect” value in data set [6] (therapeutic use) was “does not start until some weeks after treatment”.

The record behind these values is US4102887A, “Intermediates used in the preparation of phenyl-pyridylamine derivatives” (priority 1974, dated 1978).
